# Source: patent US8071586B2, “Heterocyclyl compounds” (Hoffmann-La Roche Inc., priority 2008, dated 2011)
# Molecular target: T1, human chemokine receptor 2 isoform B (CCR2) (Homo sapiens, UniProt P41597)
# T1 sequence (P41597 1-360 isoform P41597-2): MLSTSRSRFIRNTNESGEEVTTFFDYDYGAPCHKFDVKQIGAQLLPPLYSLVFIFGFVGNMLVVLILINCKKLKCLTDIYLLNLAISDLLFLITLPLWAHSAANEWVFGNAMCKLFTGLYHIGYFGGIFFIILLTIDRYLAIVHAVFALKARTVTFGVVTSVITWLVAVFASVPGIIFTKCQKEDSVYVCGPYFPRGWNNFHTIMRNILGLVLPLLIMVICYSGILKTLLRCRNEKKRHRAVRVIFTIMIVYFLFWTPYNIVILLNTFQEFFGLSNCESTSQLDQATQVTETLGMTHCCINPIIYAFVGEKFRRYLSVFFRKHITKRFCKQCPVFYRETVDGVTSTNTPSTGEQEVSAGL
# Test: Calcium mobilization assay (FLIPR, MCP-1 stimulated CHOK1-CCR2B-A5 cells)
# Type: cell-based
# Settings: Ca mobilisation assay, CCR2 antagonist activity, inhibition of MCP-1 induced calcium increase
# Method: Calcium Mobilization Assay
# CHOK1-CCR2B-A5 cells (from Euroscreen) stably overexpressing the human chemokine receptor 2 isoform B were cultured in Nutrient Hams F12 medium supplemented with 5% FBS, 100 U/ml penicillin, 100 μg/ml streptomycin, 400 μg/ml G418 and 5 μg/ml puromycin.
# For the assay cells were grown overnight in 384-well black clear flat bottom polystyrene plates (Costar) at 37° C. at 5% CO2. After washing with DMEM, 20 mM Hepes, 2.5 mM probenecid, 0.1% BSA (DMEM assay buffer) cells were loaded with 4 μM Fluo-4 in the same DMEM assay buffer for 2 hours at 30° C. Excess dye was removed and cells were washed with DMEM assay buffer. 384-well compound plates were prepared with DMEM assay buffer/0.5% DMSO with or without various concentrations of test compounds. Usually compounds were tested for agonist and antagonist activity.
# Test compounds were added to the assay plate and agonist activity was monitored as fluorescence for 80 seconds with a FLIPR (488 nm excitation; 510-570 nm emission; Molecular Devices). After 20-30 min. of incubation at 30° C., […] MCP-1 (R&D; Roche) was added and fluorescence was monitored again for 80 seconds. Increases in intracellular calcium are reported as maximum fluorescence after agonist exposure minus basal fluorescence before exposure. Antagonist activity is indicated as inhibitor concentration required for 50% inhibition of specific calcium increases.
row,Structure (SMILES),IC50 [nM]
1,"O=C1CCN(C(=O)Nc2ccc(Cl)c(Cl)c2)[C@H](Cc2ccccc2)CN1CCCN1CCCCC1 [Example 27, (R)-2-Benzyl-5-oxo-4-(3-piperidin-1-yl-propyl)-[1,4]diazepane-1-carboxylic acid (3,4-dichloro-phenyl)-amide]",540
2,"O=C(Oc1ccc(Cl)c(Cl)c1)N1CCC(=O)N(C(CO)CCN2CCC3(CC3)[C@H](O)C2)CC1 (stereo partly drawn) [Example 9, (R,S)-4-[3-((S)-4-Hydroxy-6-aza-spiro[2.5]oct-6-yl)-1-hydroxymethyl-propyl]-5-oxo-[1,4]diazepane-1-carboxylic acid 3,4-dichloro-phenyl ester]",420
3,"C[C@@H]1CN(CCCN2CCC3(CC3)[C@H](O)C2)C(=O)CCN1C(=O)Nc1cccc(Cl)c1 [Example 60, (R)-4-[3-((S)-4-Hydroxy-6-aza-spiro[2.5]oct-6-yl)-propyl]-2-methyl-5-oxo-[1,4]diazepane-1-carboxylic acid (3-chloro-phenyl)-amide]",60
4,"O=C(NCc1ccc(Cl)c(Cl)c1)OC[C@H](CCN1CCC2(CC2)[C@H](O)C1)N1CCN(C(=O)NCc2ccc(Cl)c(Cl)c2)CCC1=O [Example 52, (3,4-dichloro-benzyl)-carbamic acid (S)-2-[4-(3,4-dichloro-benzylcarbamoyl)-7-oxo-[1,4]diazepan-1-yl]-4-((S)-4-hydroxy-6-aza-spiro[2.5]oct-6-yl)-butyl ester]",960
5,"COCC(CCN1CCC2(CC2)[C@H](O)C1)N1CC(C)N(C(=O)Nc2cccc(C(F)(F)F)c2)CCC1=O (stereo in doubt) [Example 66, (R)-4-[(S)-3-((S)-4-Hydroxy-6-aza-spiro[2.5]oct-6-yl)-1-methoxymethyl-propyl]-2-methyl-5-oxo-[1,4]diazepane-1-carboxylic acid (3-trifluoromethyl-phenyl)-amide]",33
6,"O=C(Nc1cccc(Cl)c1)N1CCC(=O)N(C(CO)CCN2CCC3(CC3)[C@H](O)C2)CC1 (stereo partly drawn) [Example 2, (R,S)-4-[3-((S)-4-Hydroxy-6-aza-spiro[2.5]oct-6-yl)-1-hydroxymethyl-propyl]-5-oxo-[1,4]diazepane-1-carboxylic acid (3-chloro-phenyl)-amide]",40
7,"COC[C@H](CCN1CCC2(CC2)[C@H](O)C1)N1CCN(C(=O)Nc2cccc(Cl)c2)[C@H](C)C1=O [Example 85, (R)-4-[(S)-3-((S)-4-Hydroxy-6-aza-spiro[2.5]oct-6-yl)-1-methoxymethyl-propyl]-2-methyl-3-oxo-piperazine-1-carboxylic acid (3-chloro-phenyl)-amide]",180
8,"COC[C@@H](CCN1CCC2(CC2)[C@H](O)C1)N1CCN(C(=O)Nc2ccc(Cl)c(Cl)c2)CCC1=O [Example 57, 4-[(R)-3-((S)-4-hydroxy-6-aza-spiro[2.5]oct-6-yl)-1-methoxymethyl-propyl]-5-oxo-[1,4]diazepane-1-carboxylic acid (3,4-dichloro-phenyl)-amide]",240
9,"COC(=O)[C@H](CCN1CCC2(CC2)[C@H](O)C1)N1C[C@@H](C)N(C(=O)Nc2cccc(Cl)c2)CCC1=O [Example 62, (S)-2-[(R)-4-(3-Chloro-phenylcarbamoyl)-3-methyl-7-oxo-[1,4]diazepan-1-yl]-4-((S)-4-hydroxy-6-aza-spiro[2.5]oct-6-yl)-butyric acid methyl ester]",30
10,"C[C@H]1C(=O)N(CCCCN2CCC3(CC3)[C@H](O)C2)CCN1C(=O)Nc1cccc(C(F)(F)F)c1 [Example 89, (S)-4-[4-((S)-4-Hydroxy-6-aza-spiro[2.5]oct-6-yl)-butyl]-2-methyl-3-oxo-piperazine-1-carboxylic acid (3-trifluoromethyl-phenyl)-amide]",25
11,"C[C@H]1C(=O)N(CCCCN2CCC3(CC3)[C@H](O)C2)CCN1C(=O)Nc1ccc(C(F)(F)F)cc1 [Example 88, (S)-4-[4-((S)-4-Hydroxy-6-aza-spiro[2.5]oct-6-yl)-butyl]-2-methyl-3-oxo-piperazine-1-carboxylic acid (4-trifluoromethyl-phenyl)-amide]",97
12,"O=S1(=O)CCN(C(=S)Nc2ccc(Cl)c(Cl)c2)CCN1CCCN1CCCCC1 [Example 22, 1,1-Dioxo-2-(3-piperidin-1-yl-propyl)-[1,2,5]thiadiazepane-5-carbothioic acid (3,4-dichloro-phenyl)-amide]",770

# Now those with a lower IC50, led by results:
row,IC50 [nM],Structure (SMILES)
1,6,"C[C@H]1C(=O)N([C@@H](CCN2CCC3(CC3)[C@H](O)C2)COC(=O)C(C)(C)C)CCN1C(=O)Nc1ccc(Cl)c(Cl)c1 [Example 114, 2,2-Dimethyl-propionic acid (S)-2-[(S)-4-(3,4-dichloro-phenylcarbamoyl)-3-methyl-2-oxo-piperazin-1-yl]-4-((S)-4-hydroxy-6-aza-spiro[2.5]oct-6-yl)-butyl ester]"
2,6,"C[C@H]1C(=O)N(CCCCN2CCC3(CC3)[C@H](O)C2)CCN1C(=O)Nc1ccc2ccccc2c1 [Example 91, (S)-4-[4-((S)-4-Hydroxy-6-aza-spiro[2.5]oct-6-yl)-butyl]-2-methyl-3-oxo-piperazine-1-carboxylic acid naphthalen-2-ylamide]"
3,2,"C[C@H]1C(=O)N(C[C@@H](O)CN2CCC3(CC3)[C@H](O)C2)CCN1C(=O)Nc1ccc(Cl)c(Cl)c1 [Example 120, (S)-4-[(S)-2-Hydroxy-3-((S)-4-hydroxy-6-aza-spiro[2.5]oct-6-yl)-propyl]-2-methyl-3-oxo-piperazine-1-carboxylic acid (3,4-dichloro-phenyl)-amide]"
4,2,"C[C@H]1C(=O)N(CCCN2CCC3(CC3)[C@H](O)C2)CCN1C(=O)Nc1ccc(Cl)c(Cl)c1 [Example 45, (S)-4-[3-((S)-4-Hydroxy-6-aza-spiro[2.5]oct-6-yl)-propyl]-2-methyl-3-oxo-piperazine-1-carboxylic acid (3,4-dichloro-phenyl)-amide]"
5,5,"C[C@H]1C(=O)N(CCCCN2CCC3(CC3)[C@H](O)C2)CCN1C(=O)Nc1cccc(Cl)c1 [Example 87, (S)-4-[4-((S)-4-Hydroxy-6-aza-spiro[2.5]oct-6-yl)-butyl]-2-methyl-3-oxo-piperazine-1-carboxylic acid (3-chloro-phenyl)-amide]"
6,10,"O=C(Nc1cccc(Cl)c1)N1CCC(=O)N([C@H](CO)CCN2CCC3(CC3)[C@H](O)C2)CC1 [Example 4, 4-[(S)-3-((S)-4-Hydroxy-6-aza-spiro[2.5]oct-6-yl)-1-hydroxymethyl-propyl]-5-oxo-[1,4]diazepane-1-carboxylic acid (3-chloro-phenyl)-amide]"
7,5,"C[C@H]1C(=O)N(CCCN2CCC3(CC3)[C@H](O)C2)CCN1C(=O)Nc1cccc(Cl)c1 [Example 69, (S)-4-[3-((S)-4-Hydroxy-6-aza-spiro[2.5]oct-6-yl)-propyl]-2-methyl-3-oxo-piperazine-1-carboxylic acid (3-chloro-phenyl)-amide]"
8,1,"C[C@H]1C(=O)N([C@H](CO)CCN2CCC3(CC3)[C@H](O)C2)CCN1C(=O)Nc1ccc(Cl)c(Cl)c1 [Example 106, (S)-4-[(S)-3-((S)-4-Hydroxy-6-aza-spiro[2.5]oct-6-yl)-1-hydroxymethyl-propyl]-2-methyl-3-oxo-piperazine-1-carboxylic acid (3,4-dichloro-phenyl)-amide]"
9,4,"COC[C@H](CCN1CCC2(CC2)[C@H](O)C1)N1CCN(C(=O)Nc2cccc(Cl)c2)[C@@H](C)C1=O [Example 82, (S)-4-[(S)-3-((S)-4-Hydroxy-6-aza-spiro[2.5]oct-6-yl)-1-methoxymethyl-propyl]-2-methyl-3-oxo-piperazine-1-carboxylic acid (3-chloro-phenyl)-amide]"
10,2,"C[C@H]1C(=O)N(CCCN2CCC3(CC3)[C@H](O)C2)CCN1C(=O)Nc1cccc(-c2ccccc2)c1 [Example 78, (S)-4-[3-((S)-4-Hydroxy-6-aza-spiro[2.5]oct-6-yl)-propyl]-2-methyl-3-oxo-piperazine-1-carboxylic acid biphenyl-3-ylamide]"
11,4,"C[C@H]1C(=O)N([C@@H](CCN2CCC3(CC3)[C@H](O)C2)C(=O)N(C)C)CCN1C(=O)Nc1ccc(Cl)c(Cl)c1 [Example 124, (S)-4-[(S)-1-Dimethylcarbamoyl-3-((S)-4-hydroxy-6-aza-spiro[2.5]oct-6-yl)-propyl]-2-methyl-3-oxo-piperazine-1-carboxylic acid (3,4-dichloro-phenyl)-amide]"
12,2,"CC(=O)OC[C@H](CCN1CCC2(CC2)[C@H](O)C1)N1CCN(C(=O)Nc2ccc(Cl)c(Cl)c2)[C@@H](C)C1=O [Example 108, Acetic acid (S)-2-[(S)-4-(3,4-dichloro-phenylcarbamoyl)-3-methyl-2-oxo-piperazin-1-yl]-4-((S)-4-hydroxy-6-aza-spiro[2.5]oct-6-yl)-butyl ester]"
